Data set [1] deals with T1, recombinant HIV-1 reverse transcriptase (RTHXB2) (Human immunodeficiency virus type 1 group M subtype B, UniProt P04585).
T1 construct: The enzyme is derived from a polyprotein encoded by the virus, processed by the viral protease
Kind of data set: Reverse transcriptase inhibition activity (RDDP, [3H]dTTP incorporation). In kind it is biochemical. Particulars: for IC50: 50% inhibitory concentration, mean of three independent experiments, read-out: CI50 (the source's name); for IS: CC50 / CI50. The method, then: Reverse Transcriptase Inhibition Activity
The RDDP activity was determined in 50 mM Tris HCl (pH 7.8), 6 mM MgCl2, 1 mM dithiothreitol, 50 mM KCl, 5 μM dTTP, […] poly (rA) oligo (dT) template primer (Pharmacia, Piscataway, N.J., USA) and 3 U of enzyme (one unit is the enzyme concentration incorporating dTTP […] per minute per mg of enzyme at 37° C. under standard conditions). The reaction isotope dilutions were prepared at 2 μCi of [3H] dTTP (49 Ci/mmol)/2,7μ dTTP. The reaction was initiated at 37° C., incubated for 30 minutes and halted with 0.5M EDTA. The precipitate was collected on Whatman 81 filter paper and washed with 0.1 M sodium phosphate. The incorporated nucleotides were measured by liquid scintillation. The 50% inhibitory concentration (Ciso) was determined by linear regression analysis of the dose-response curve obtained from experimental data. The polymerization reaction was conducted in the presence and absence of test substances, as well as the presence and absence of standards.
All tests were conducted on three separate occasions. At least three independent experiments were performed and triplicates were run for each concentration.

Data set [2] deals with Suptl cells (T-lymphocyte cell line). Briefly: Cytotoxicity assay (MTT). In kind it is cell-based. As to the method:
The T-lymphocyte cell line (Suptl) was cultured in an RPMI 1640 medium (GIBICO). The cultures were supplemented with 10% Fetal Bovine Serum (SFB; HyClone, Logan, Utah, USA), 100 U/mL of penicillin and […] of streptomycin, and incubated at 37° C., in an atmosphere of 5% CO2. Virus stocks were prepared using the methodology described by Souza and Denizot (SOUZA, T. M. L; RODRIGUES, D. Q.; […], V. F.; MARQUES, I. P.; DE SOUZA, M. C. B. V.; […], I. C. P. P.; BOU-HABIB, D. C; FONTES, C. F. L. Characterization of HIV-1 enzyme reverse transcriptase inhibition by the compound 6-chloro-1.4-dihydro-4-oxo-1-(β-D-ribofuranosyl) quinoline-3-carboxylic acid through kinetic and in silico studies. Current HIV Research, v. 7, No 3, page 327-335, 2009. DENIZOT, F.; LANG, R. Rapid colorimetric assay for cell growth and survival. Modifications to the tetrazolium dye procedure giving improved sensitivity and reliability. The Journal of Immunological Methods, v. 89, No 2, page 271-277, 1986).
. They were then run through an MTT assay (3-(4,5-dimethylazol-2-yl)-2.5-diphenyl tetrazolium bromide) in order to analyze cell induction infeasibility. MTT is a colorimetric method that measures mitochondrial dehydrogenase activity based on the ability of live cells to reduce 3-(4,5-methylazol-2-yl)-2.5-diphenyl tetrazolium bromide salt in the product. A […] solution of 3-(4,5-dimethylthiazol-2-yl)-2.5-diphenyl tetrazolium bromide (1 mg/ml) (MTT, Sigma) was thus added to the cells, kept in Dulbecco's Modified Eagle's medium (DMEM) without serum. The MTT was removed after three hours and, after adding […] of isopropanol acid (0.04N HCl in isopropanol), the optical density (OD) was determined using a wavelength range of 570 to 690 nm, according to KUO et al (KUO, Y. C; CHEN, C. C; TSA, W. J.; HO, Y. H. Regulation of type 1 herpes simplex virus replication in vero cells by Psychotriaserpens: relationship to gene expression, DNA replication, and protein synthesis. Antiviral Research, v. 51, No 2, pages 95 to 109, 2001). The dye coloring has different optical densities, depending on mitochondrial metabolism after treating cells with different concentrations of the new derivatives or the absence thereof. The 50% cytotoxic concentration (CC50) was calculated through linear regression analysis from the dose-response curve obtained from experimental data.

The mark [3] stands for this setting: 50% cytotoxic concentration, 72 hours, MTT, read-out: CC50.

Each structure is given as a SMILES string. Read-outs that look alike come from different tables or passages of the source.

Take `C[C@H](Cn1cnc2c(N)ncnc21)OCP(=O)(O)O` [Tenofovir, reference compound]: in data set [1], the IC50 amounted to 1.2 µM and the IS is given as 567. Besides, it took 680 µM to reach half-maximal cytotoxicity in data set [2] (CC50).

Take `Cc1cn(C2CC(n3cc(CN4C(=O)C(F)(F)c5ccccc54)nn3)C(CO)O2)c(=O)[nH]c1=O` (stereo not shown) [IIIa, 1-(4-(4-((3,3-difluor-2-oxoindolin-1-yl)methyl)-1H-1,2,3-triazole-1-yl)-5-(hydroxymethyl)tetrahydrofuran-2-yl)-5-methylpyrimidine-2.4(1H,3H)-dione]: in data set [1], the “RT enzyme inhibition activity compared with benchmarks (in words)” value is “more active than the nevirapine and tenofovir benchmarks”; the IC50 amounted to 0.6 µM; the IS turned out to be 1392. For the same compound, in data set [2] (setting [3]), the CC50 was determined as 835 µM.

For `CCOP(=O)(Cn1cc(CN2C(=O)C(F)(F)c3ccccc32)nn1)OCC` [IIId, diethyl ((4-((3,3-difluor-2-oxoindolin-1-yl)methyl)-1H-1,2,3-triazole-1-yl)methyl) phosphonate], in data set [1], the IC50 was found to be 1.2 µM and the IS is 1247. The CC50 in data set [2] (setting [3]) is 1500 µM.

A word on the CC50: it is the concentration at which the toxic effect on the cells reaches its halfway point.

(Values after patent US10538515B2, “Isatin-derived compounds, use of the compounds for the treatment of AIDS and method of treatment using these compounds” (FUNDAÇÄO OSWALDO CRUZ, priority 2016, dated 2020).)
